From patent US6608082B1, “Treatment of erectile dysfunction using isoquinoline compound melanocortin receptor ligands” (Lion Bioscience AG, priority 1998, dated 2003) come the findings set out here.

The assay deals with T1, MCR-1 (Homo sapiens, UniProt Q01726).
T1 construct: expressed in transfected cells; host or cells: HEK 293
In words: Melanocortin receptor binding assay, competition with 125I-HP 467, HEK 293 cells expressing hMCR-1. Conditions: for % Disp. of 125I-HP 467 (first of duplicate) / % Disp. of 125I-HP 467 (second of duplicate): 10 μM isoquinoline compound; for % Disp. of 125I-HP 467 (first of duplicate): HEK 293 cells expressing MCR-1, duplicate 1; for % Disp. of 125I-HP 467 (second of duplicate): HEK 293 cells expressing MCR-1, duplicate 2; for IC50: competition with 125I-HP 467, HEK 293 cells expressing MCR-1, read-out: MC-1 IC50. The essentials:
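Test compounds compete on intact HEK 293 cells carrying hMCR-1 (2×10^4 per tube) or hMCR-4 (4×10^3 per tube), suspended in PBS, 10% calf serum, 1 mM CaCl2.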

SMILES strings stand for the structures.

T1 sequence (Q01726 whole entry): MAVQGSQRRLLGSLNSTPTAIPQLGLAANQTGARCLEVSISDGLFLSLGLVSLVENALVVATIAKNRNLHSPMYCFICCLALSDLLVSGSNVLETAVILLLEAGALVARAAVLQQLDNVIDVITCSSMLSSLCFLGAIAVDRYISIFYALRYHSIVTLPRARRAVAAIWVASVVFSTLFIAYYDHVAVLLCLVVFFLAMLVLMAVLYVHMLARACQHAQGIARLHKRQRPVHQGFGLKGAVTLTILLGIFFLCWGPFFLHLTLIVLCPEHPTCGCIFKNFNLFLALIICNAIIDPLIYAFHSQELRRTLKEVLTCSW

Take `CNC(CN)CCCCN1Cc2ccccc2C(CNC2CCCCC2)C1c1cc(C(F)(F)F)cc(C(F)(F)F)c1` (centres unmarked) [TRG 2405-208]: the “% Disp. of 125I-HP 467 (first of duplicate)” value was found to be 79.5% and the “% Disp. of 125I-HP 467 (second of duplicate)” value was 67.5%.
For the molecule `CNC(CN)CCCCN1Cc2ccccc2C(CNC2CCCCC2)C1c1cc(Cl)cc(Cl)c1` (centres unmarked) [TRG 2405-210], the “% Disp. of 125I-HP 467 (first of duplicate)” value was found to be 76.5% and the “% Disp. of 125I-HP 467 (second of duplicate)” value was 69.6%.
For `CNC(CN)CCCCN1Cc2ccccc2C(CNC2CCCCC2)C1c1cc(OC)cc(OC)c1` (centres unmarked) [TRG 2405-211], the “% Disp. of 125I-HP 467 (first of duplicate)” value amounted to 69.9% and the “% Disp. of 125I-HP 467 (second of duplicate)” value is 69%.
As to `CNC(CN)CCCCN1Cc2ccccc2C(CNC2CCCCC2)C1c1cc(C)c(O)c(C)c1` (centres unmarked) [TRG 2405-212], the “% Disp. of 125I-HP 467 (first of duplicate)” value came out at 54.8% and the “% Disp. of 125I-HP 467 (second of duplicate)” value is reported as 45.8%.
With `CNC(CN)CCCCN1Cc2ccccc2C(CNC2CCCCC2)C1c1cccc(Oc2ccc(OC)cc2)c1` (centres unmarked) [TRG 2405-214], the “% Disp. of 125I-HP 467 (first of duplicate)” value is 87.5% and the “% Disp. of 125I-HP 467 (second of duplicate)” value came out at 84.9%.
As for `CNC(CN)CCCCN1Cc2ccccc2C(CNC2CCCCC2)C1c1cccc(C(F)(F)F)c1` (centres unmarked) [TRG 2405-215], the “% Disp. of 125I-HP 467 (first of duplicate)” value was 75.9% and the “% Disp. of 125I-HP 467 (second of duplicate)” value is given as 70.8%.
Take `CNC(CN)CCCCN1Cc2ccccc2C(CNC2CCCCC2)C1c1ccc(F)c(Br)c1` (centres unmarked) [TRG 2405-216]: the “% Disp. of 125I-HP 467 (first of duplicate)” value was 78.9% and the “% Disp. of 125I-HP 467 (second of duplicate)” value amounted to 67.9%.
On the same counts, the results for `CNC(CN)CCCCN1Cc2ccccc2C(CNC2CCCCC2)C1c1cccc(Br)c1` (centres unmarked) [TRG 2405-217] are 74.5% and 68.8%.
On the same counts, the results for `CNC(CN)CCCCN1Cc2ccccc2C(CNC2CCCCC2)C1c1cccc(CN)c1` (centres unmarked) [TRG 2405-219] are 43.5% and 42.9%.
For `CNC(CN)CCCCN1Cc2ccccc2C(CNC2CCCCC2)C1c1ccc(OC)c(F)c1` (centres unmarked) [TRG 2405-220], the “% Disp. of 125I-HP 467 (first of duplicate)” value came out at 67.3% and the “% Disp. of 125I-HP 467 (second of duplicate)” value was 60.6%.
In the case of `CNC(CN)CCCCN1Cc2ccccc2C(CNC2CCCCC2)C1c1cccc(F)c1` (centres unmarked) [TRG 2405-221], the “% Disp. of 125I-HP 467 (first of duplicate)” value is listed as 65.2% and the “% Disp. of 125I-HP 467 (second of duplicate)” value was 62.7%.
The like results for `CNC(CN)CCCCN1Cc2ccccc2C(CNC2CCCCC2)C1c1ccoc1` (centres unmarked) [TRG 2405-222] were, in that order, 34.3% and 39.3%.
The like results for `CNC(CN)CCCCN1Cc2ccccc2C(CNC2CCCCC2)C1c1cccc(O)c1` (centres unmarked) [TRG 2405-223] were, in that order, 33.6% and 21.2%.
Take `CNC(CN)CCCCN1Cc2ccccc2C(CNC2CCCCC2)C1c1cccc(OC)c1` (centres unmarked) [TRG 2405-225]: the “% Disp. of 125I-HP 467 (first of duplicate)” value worked out at 69.8% and the “% Disp. of 125I-HP 467 (second of duplicate)” value worked out at 69.4%.
Regarding `CNC(CN)CCCCN1Cc2ccccc2C(CNC2CCCCC2)C1c1cccc(C)c1` (centres unmarked) [TRG 2405-227], the “% Disp. of 125I-HP 467 (first of duplicate)” value was determined as 78.2% and the “% Disp. of 125I-HP 467 (second of duplicate)” value is reported as 74.6%.
On to `CNC(CN)CCCCN1Cc2ccccc2C(CNC2CCCCC2)C1c1cccc([N+](=O)[O-])c1` (centres unmarked) [TRG 2405-229], for which the “% Disp. of 125I-HP 467 (first of duplicate)” value came to 58.6% and the “% Disp. of 125I-HP 467 (second of duplicate)” value was found to be 48.8%.
The like results for `CNC(CN)CCCCN1Cc2ccccc2C(CNC2CCCCC2)C1c1cccc(Oc2ccccc2)c1` (centres unmarked) [TRG 2405-230] were, in that order, 89.2% and 84.2%.
For the molecule `CNC(CN)CCCCN1Cc2ccccc2C(CNC2CCCCC2)C1c1cccnc1` (centres unmarked) [TRG 2405-231], the “% Disp. of 125I-HP 467 (first of duplicate)” value amounted to 25% and the “% Disp. of 125I-HP 467 (second of duplicate)” value is on record as 18.9%.
The like results for `CNC(CN)CCCCN1Cc2ccccc2C(CNC2CCCCC2)C1c1cnc2ccccc2c1` (centres unmarked) [TRG 2405-232] were, in that order, 36.1% and 34.2%.
Regarding `CNC(CN)CCCCN1Cc2ccccc2C(CNC2CCCCC2)C1c1ccc(OCCCN(C)C)cc1` (centres unmarked) [TRG 2405-234], the “% Disp. of 125I-HP 467 (first of duplicate)” value was 52.9% and the “% Disp. of 125I-HP 467 (second of duplicate)” value stood at 37.7%.
The like results for `CNC(CN)CCCCN1Cc2ccccc2C(CNC2CCCCC2)C1c1ccc(SC)cc1` (centres unmarked) [TRG 2405-237] were, in that order, 62.2% and 47.8%.
With `CNC(CN)CCCCN1Cc2ccccc2C(CNC2CCCCC2)C1c1ccc(OC)cc1` (centres unmarked) [TRG 2405-240], the “% Disp. of 125I-HP 467 (first of duplicate)” value was 69.6% and the “% Disp. of 125I-HP 467 (second of duplicate)” value was determined as 66.5%.
On to `CNC(CN)CCCCN1Cc2ccccc2C(CNC2CCCCC2)C1c1ccc(CN)cc1` (centres unmarked) [TRG 2405-244], for which the “% Disp. of 125I-HP 467 (first of duplicate)” value turned out to be 29.7% and the “% Disp. of 125I-HP 467 (second of duplicate)” value was determined as 22.5%.
In the case of `CNC(CN)CCCCN1Cc2ccccc2C(CNC2CCCCC2)C1c1ccc(F)cc1` (centres unmarked) [TRG 2405-245], the “% Disp. of 125I-HP 467 (first of duplicate)” value came to 56.6% and the “% Disp. of 125I-HP 467 (second of duplicate)” value worked out at 56.8%.
Turning to `CNC(CN)CCCCN1Cc2ccccc2C(CNC2CCCCC2)C1c1ccc(C(C)C)cc1` (centres unmarked) [TRG 2405-247], the “% Disp. of 125I-HP 467 (first of duplicate)” value is reported as 83% and the “% Disp. of 125I-HP 467 (second of duplicate)” value was 85.3%.
The like results for `CNC(CN)CCCCN1Cc2ccccc2C(CNC2CCCCC2)C1c1ccc(C)cc1` (centres unmarked) [TRG 2405-249] were, in that order, 82.3% and 83%.
`CNC(CN)CCCCN1Cc2ccccc2C(CNC2CCCCC2)C1c1ccc([N+](=O)[O-])cc1` (centres unmarked) [TRG 2405-251]: the “% Disp. of 125I-HP 467 (first of duplicate)” value worked out at 49.4% and the “% Disp. of 125I-HP 467 (second of duplicate)” value came out at 46.9%.
On the same counts, the results for `CNC(CN)CCCCN1Cc2ccccc2C(CNC2CCCCC2)C1c1ccncc1` (centres unmarked) [TRG 2405-254] are 24.9% and 29.1%.
With `CNC(CN)CCCCN1Cc2ccccc2C(CNC2CCCCC2)C1c1ccnc2ccccc12` (centres unmarked) [TRG 2405-255], the “% Disp. of 125I-HP 467 (first of duplicate)” value amounted to 29.2% and the “% Disp. of 125I-HP 467 (second of duplicate)” value was 25.3%.
Take `CNC(CN)CCCCN1Cc2ccccc2C(CNC2CCCCC2)C1c1ccc(C)s1` (centres unmarked) [TRG 2405-258]: the “% Disp. of 125I-HP 467 (first of duplicate)” value stood at 80.7% and the “% Disp. of 125I-HP 467 (second of duplicate)” value was found to be 81.9%.
As to `CNC(CN)CCCCN1Cc2ccccc2C(CNC2CCCCC2)C1c1ccc(C)o1` (centres unmarked) [TRG 2405-259], the “% Disp. of 125I-HP 467 (first of duplicate)” value stood at 42.5% and the “% Disp. of 125I-HP 467 (second of duplicate)” value was 46.1%.
On the same counts, the results for `CNC(CN)CCCCN1Cc2ccccc2C(CNC2CCCCC2)C1c1cccc(C)n1` (centres unmarked) [TRG 2405-261] are 45.9% and 47.8%.
With `CCn1c2ccccc2c2cc(C3C(CNC4CCCCC4)c4ccccc4CN3CCCCC(CN)NC)ccc21` (centres unmarked) [TRG 2405-263], the “% Disp. of 125I-HP 467 (first of duplicate)” value is on record as 61.6% and the “% Disp. of 125I-HP 467 (second of duplicate)” value worked out at 65.3%.
On to `CNC(CN)CCCCN1Cc2ccccc2C(CNC2CCCCC2)C1c1cc2c3c(c1O)CCCN3CCC2` (centres unmarked) [TRG 2405-264], for which the “% Disp. of 125I-HP 467 (first of duplicate)” value came out at 35% and the “% Disp. of 125I-HP 467 (second of duplicate)” value worked out at 39.4%.
With `CNC(CN)CCCCN1Cc2ccccc2C(CNC2CCCCC2)C1c1ccc(Br)o1` (centres unmarked) [TRG 2405-269], the “% Disp. of 125I-HP 467 (first of duplicate)” value came out at 55.9% and the “% Disp. of 125I-HP 467 (second of duplicate)” value is on record as 57.7%.
On the same counts, the results for `CNC(CN)CCCCN1Cc2ccccc2C(CNC2CCCCC2)C1c1nccs1` (centres unmarked) [TRG 2405-270] are 41.1% and 33.7%.
A word on the IC50: it is the concentration that inhibits the measured activity by half. As for `CCCCNc1ccc(C2C(CN)c3ccccc3CN2CCCC(CN)NCCc2ccc(Br)cc2)cc1` (centres unmarked) [TRG 2409-222], the IC50 stood at 120 nM.
As for `CCCCNc1ccc(C2C(CN)c3ccccc3CN2CCCC(CN)NCc2ccc(OC)cc2)cc1` (centres unmarked) [TRG 2409-226], the IC50 was determined as 100 nM.
On to `CCCCNc1ccc(C2C(CN)c3ccccc3CN2CCCC(CN)NCCc2ccc3ccccc3c2)cc1` (centres unmarked) [TRG 2409-227], for which the IC50 amounted to 170 nM.
Regarding `CCCCNc1ccc(C2C(CN)c3ccccc3CN2CCCC(CN)NCCN)cc1` (centres unmarked) [TRG 2409-229], the IC50 worked out at 230 nM.
In the case of `CCNC(CN)CCCCN1Cc2ccccc2C(CNCCc2ccccc2)C1c1ccc(-c2ccccc2)cc1` (centres unmarked) [TRG 2411-2], the IC50 was 550 nM.
Take `NC[C@H](CCCCN1Cc2ccccc2C(CNCCc2ccccc2)C1c1ccc(-c2ccccc2)cc1)NCCc1ccccc1` (some centres unmarked) [TRG 2411-3]: the IC50 was found to be 880 nM.
`CNCCNC(CN)CCCCN1Cc2ccccc2C(CNCCc2ccccc2)C1c1ccc(-c2ccccc2)cc1` (centres unmarked) [TRG 2411-4]: the IC50 is 700 nM.
In the case of `NCCN[C@H](CN)CCCCN1Cc2ccccc2C(CNCCc2ccccc2)C1c1ccc(-c2ccccc2)cc1` (some centres unmarked) [TRG 2411-5], the IC50 is 790 nM.
As to `CNC(C)CNC(CN)CCCCN1Cc2ccccc2C(CNCCc2ccccc2)C1c1ccc(-c2ccccc2)cc1` (centres unmarked) [TRG 2411-6], the IC50 came to 470 nM.
Same read-out and setting: then `NCC(CCCCN1Cc2ccccc2C(CNCCc2ccccc2)C1c1ccc(-c2ccccc2)cc1)NCCO` (centres unmarked) [TRG 2411-7], with 630 nM.
Take `CNC(CNC(CN)CCCCN1Cc2ccccc2C(CNCCc2ccccc2)C1c1ccc(-c2ccccc2)cc1)Cc1ccccc1` (centres unmarked) [TRG 2411-8]: the IC50 came out at 760 nM.
On to `COCCNC(CN)CCCCN1Cc2ccccc2C(CNCCc2ccccc2)C1c1ccc(-c2ccccc2)cc1` (centres unmarked) [TRG 2411-10], for which the IC50 was determined as 1100 nM.
Same read-out and setting: the same measure for `NCC(CCCCN1Cc2ccccc2C(CNCCc2ccccc2)C1c1ccc(-c2ccccc2)cc1)NCC1CCCCC1` (centres unmarked) [TRG 2411-12]: 730 nM; for `NCC(CCCCN1Cc2ccccc2C(CNCCc2ccccc2)C1c1ccc(-c2ccccc2)cc1)NCc1ccccc1` (centres unmarked) [TRG 2411-13]: 1360 nM.
